# Assay results reported in ChEMBL document CHEMBL1201862, “PubChem BioAssay data set” (2004).
#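 Briefly, cells in 96-well plates were exposed to five compound concentrations for 48 h, and endpoints were estimated by linear interpolation. GI50 is the concentration that inhibits growth by half.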 Active and inactive are the calls of the source. Rule as the data show it: active = GI50 up to about 1.1 µM and inactive = higher.
# Columns and labels:
# Test in all cases: growth of human tumour cells (NCI), 48 h
# RPMI-8226 = system: RPMI-8226
# A498 = system: A498
# KM12 = system: KM12
# UACC-257 = system: UACC-257
# MOLT-4 = system: MOLT-4
# Malme-3M = system: Malme-3M
# SK-MEL-5 = system: SK-MEL-5
# SK-OV-3 = system: SK-OV-3
# NCI-H522 = system: NCI-H522
# UO-31 = system: UO-31
# LOX IMVI = system: LOX IMVI
# SF-295 = system: SF-295
# MDA-N = system: MDA-N
# SF-539 = system: SF-539
# M14 = system: M14
# UACC-62 = system: UACC-62
# OVCAR-3 = system: OVCAR-3
# DU-145 = system: DU-145
# MDA-MB-435 = system: MDA-MB-435
# CCRF-CEM = system: CCRF-CEM
Structure (SMILES),GI50 (RPMI-8226),GI50 (A498),GI50 (KM12),GI50 (UACC-257),GI50 (MOLT-4),GI50 (Malme-3M),GI50 (SK-MEL-5),GI50 (SK-OV-3),GI50 (NCI-H522),GI50 (UO-31),GI50 (LOX IMVI),GI50 (SF-295),GI50 (MDA-N),GI50 (SF-539),GI50 (M14),GI50 (UACC-62),GI50 (OVCAR-3),GI50 (DU-145),GI50 (MDA-MB-435),GI50 (CCRF-CEM)
CC1=NN(c2ccc(S(=O)(=O)O)cc2)C2(C1)SCC(=O)N2c1nc2ccccc2s1 (centres undefined),> 100 µM (inactive),> 100 µM (inactive),> 100 µM (inactive),> 100 µM (inactive),46.9 µM (inactive),> 100 µM (inactive),> 100 µM (inactive),> 100 µM (inactive),> 100 µM (inactive),> 100 µM (inactive),66.1 µM (inactive),> 100 µM (inactive),> 100 µM (inactive),> 100 µM (inactive),> 100 µM (inactive),> 100 µM (inactive),> 100 µM (inactive),> 100 µM (inactive),> 100 µM (inactive),
COc1cc([C@@H]2c3cc(O)c(OC)cc3C=C(C(N)=O)[C@H]2C(N)=O)ccc1O,> 100 µM (inactive),> 100 µM (inactive),> 100 µM (inactive),> 100 µM (inactive),> 100 µM (inactive),> 100 µM (inactive),> 100 µM (inactive),,> 100 µM (inactive),> 100 µM (inactive),> 100 µM (inactive),> 100 µM (inactive),> 100 µM (inactive),> 100 µM (inactive),> 100 µM (inactive),,> 100 µM (inactive),> 100 µM (inactive),> 100 µM (inactive),> 100 µM (inactive)
Cc1ccc(S(=O)(=O)Nc2nnc(S(N)(=O)=O)s2)cc1,> 100 µM (inactive),> 100 µM (inactive),> 100 µM (inactive),> 100 µM (inactive),> 100 µM (inactive),> 100 µM (inactive),> 100 µM (inactive),> 100 µM (inactive),> 100 µM (inactive),> 100 µM (inactive),> 100 µM (inactive),> 100 µM (inactive),> 100 µM (inactive),,> 100 µM (inactive),> 100 µM (inactive),> 100 µM (inactive),> 100 µM (inactive),> 100 µM (inactive),
CCOc1cc2c(cc1O)/C(=N\OC)C[C@@H]1[C@@H]2CC[C@]2(C)[C@@H](O)CC[C@@H]12,0.167 µM (active),0.0908 µM (active),0.423 µM (active),,0.255 µM (active),0.129 µM (active),< 0.0253 µM (active),0.243 µM (active),0.0288 µM (active),0.875 µM (active),0.122 µM (active),,< 0.0163 µM (active),,0.15 µM (active),< 0.0306 µM (active),< 0.0205 µM (active),0.326 µM (active),0.0282 µM (active),0.299 µM (active)
O=C1Nc2ccc(S(=O)(=O)O)cc2/C1=C1/Nc2ccc(Br)cc2C1=O,> 100 µM (inactive),> 100 µM (inactive),> 100 µM (inactive),> 100 µM (inactive),> 100 µM (inactive),> 100 µM (inactive),> 100 µM (inactive),> 100 µM (inactive),> 100 µM (inactive),> 100 µM (inactive),> 100 µM (inactive),> 100 µM (inactive),> 100 µM (inactive),,> 100 µM (inactive),> 100 µM (inactive),> 100 µM (inactive),> 100 µM (inactive),> 100 µM (inactive),> 100 µM (inactive)
O=C(C[C@H](NC(=O)OCc1ccccc1)C(=O)NC1Cc2ccccc2OC1=O)OCc1ccccc1 (some centres undefined),> 100 µM (inactive),> 100 µM (inactive),> 100 µM (inactive),,> 100 µM (inactive),> 100 µM (inactive),> 100 µM (inactive),> 100 µM (inactive),> 100 µM (inactive),> 100 µM (inactive),,,> 100 µM (inactive),,> 100 µM (inactive),> 10 µM (inactive),> 100 µM (inactive),59.6 µM (inactive),> 100 µM (inactive),17.4 µM (inactive)
CCOP(=O)(OCC)C(N)c1ccc(Cl)cc1 (centres undefined),> 100 µM (inactive),> 100 µM (inactive),> 100 µM (inactive),> 100 µM (inactive),> 100 µM (inactive),> 100 µM (inactive),> 100 µM (inactive),,> 100 µM (inactive),,> 100 µM (inactive),,> 100 µM (inactive),> 100 µM (inactive),> 100 µM (inactive),> 100 µM (inactive),,> 100 µM (inactive),> 100 µM (inactive),> 100 µM (inactive)
CC(NC(=O)C(N)Cc1ccc(O)cn1)C(=O)O (centres undefined),> 100 µM (inactive),> 100 µM (inactive),> 100 µM (inactive),> 100 µM (inactive),> 100 µM (inactive),> 100 µM (inactive),> 100 µM (inactive),,> 100 µM (inactive),> 100 µM (inactive),> 100 µM (inactive),> 100 µM (inactive),> 100 µM (inactive),> 100 µM (inactive),,,> 100 µM (inactive),> 100 µM (inactive),> 100 µM (inactive),> 100 µM (inactive)
COc1ccc(N2C(=O)C3c4[nH]c5ccc(OC)cc5c4C4CCC(C(C)C)CC4C3C2=O)cc1 (centres undefined),> 100 µM (inactive),28 µM (inactive),> 100 µM (inactive),> 100 µM (inactive),28.8 µM (inactive),,> 100 µM (inactive),36.9 µM (inactive),18.1 µM (inactive),> 100 µM (inactive),> 100 µM (inactive),31.2 µM (inactive),> 100 µM (inactive),,34.1 µM (inactive),> 31.6 µM (inactive),> 100 µM (inactive),> 100 µM (inactive),> 100 µM (inactive),7.73 µM (inactive)
Cc1nc(N)c(N2CCN(CN)CC2)c(O)n1,> 100 µM (inactive),> 100 µM (inactive),> 100 µM (inactive),> 100 µM (inactive),> 100 µM (inactive),> 100 µM (inactive),,,> 100 µM (inactive),> 100 µM (inactive),> 100 µM (inactive),> 100 µM (inactive),> 100 µM (inactive),> 100 µM (inactive),> 100 µM (inactive),,> 100 µM (inactive),> 100 µM (inactive),> 100 µM (inactive),> 100 µM (inactive)
O=C(O)C1CC=CCC1C(=O)Nc1cccc(O)c1 (centres undefined),> 100 µM (inactive),> 100 µM (inactive),> 100 µM (inactive),> 100 µM (inactive),> 100 µM (inactive),> 100 µM (inactive),> 100 µM (inactive),> 100 µM (inactive),> 100 µM (inactive),> 100 µM (inactive),> 100 µM (inactive),> 100 µM (inactive),> 100 µM (inactive),> 100 µM (inactive),> 100 µM (inactive),> 100 µM (inactive),> 100 µM (inactive),> 100 µM (inactive),> 100 µM (inactive),
